Our source for the IC50 values is patent US20070270421A1, “Novel pyridine Derivative and Pyrimidine Derivative (1)” (priority 2004, published 2007).

The target in the assay is T1, HGFR (His6-HGFR cytoplasmic domain) (Homo sapiens, UniProt P08581).
T1 construct: made in house; host or cells: Spodoptera frugiperda Sf9 insect cells (baculovirus, pFastBac-HT)
Nature of the assay: Inhibitory activity against HGFR tyrosine kinase activity (HTRF). It counts as biochemical. As to conditions: biotin-poly(GT), ATP, 30° C. 10 min, read-out: IC50 (concentration necessary to inhibit HGFR kinase activity by 50%). The source says:
The cytoplasmic domain of HGFR (Genbank Accession No. J02958) is a 1.3 kb DNA fragment beginning with Lys974 and including a stop codon, and described by Park et al. (Proc. Natl. Acad. Sci. U.S.A. 84(18), 6379-6383, 1987). The DNA fragment was isolated from the human placental cDNA library (purchased from Clontech) by PCR (TaKaRa Ex Taq™ Kit, purchased from TaKaRa) using two kinds of primers (SEQ ID NO: 1, 5′-[…]-3′ and SEQ ID NO: 2, 5′-[…]-3′, purchased from Invitrogen). The DNA fragment was cloned into a baculovirus transplace vector (pFastBac™-HT (purchased from GIBCO BRL)) to produce a recombinant construct. The construct was transfected into insect cells (Spodoptera frugiperda 9 (Sf9)) to produce a solution of HGFR transfected baculovirus (preparation of a recombinant baculovirus can be found in the standard text (Bac-to-Bac Baculovirus Expression System (GIBCO BRL)). The cloning of the other receptor tyrosine kinases and preparation of the recombinant baculovirus solutions were performed using a cytoplasmic fragment starting from Lys791 (VEGFR2, Genbank Accession No. L04947), a cytoplasmic fragment starting from Lys398 (FGFR1, Genbank Accession No. X52833) and a cytoplasmic fragment starting from Lys558 (PDGFRβ, Genbank Accession No. M21616) in stead of HGFR in the above method. EGFR was purchased from Sigma (Production No. E-2645).
To the suspension of Sf9 cells (3×10^8 cells) in SF-900II medium (purchased from Invitrogen) containing 2% FBS was added a solution of HGFR transfected baculovirus above (4 ml), followed by a shaking culture at 27° C. for 48 hrs. The cells infected with the HGFR transfected baculovirus were centrifuged at 1,000 rpm, 4° C. for 5 min to remove the supernatant. The precipitated infected cells were suspended in 80 ml of ice-cold PBS, and centrifuged at 1,000 rpm, 4° C. for 5 min to remove the supernatant. The precipitated infected cells were suspended in 40 ml of ice-cold Lysis Buffer (50 mM Tris-HCl (pH 8.5), 5 mM 2-mercaptoethanol, 100 mM KCl, 1 mM PMSF and 1% (v/v) NP-40). The suspension was centrifuged at 12,000 rpm, 4° C. for 30 min to provide a supernatant.
The supernatant was loaded onto an Ni-NTA agarose column (3 ml, purchased from Qiagen) equilibrated with 30 ml of Buffer A (20 mM Tris-HCl (pH 8.5), 5 mM 2-mercaptoethanol, 500 mM KCl, 20 mM imidazole and 10% (v/v) glycerol). The column was washed with 30 ml of Buffer A, 6 ml of Buffer B (20 mM Tris-HCl (pH 8.5), 5 mM 2-mercaptoethanol, 1 M KCl, and 10% (v/v) glycerol) and 6 ml of Buffer A in this order. Then, the column was eluted with 6 ml of Buffer C (20 mM Tris-HCl (pH 8.5), 5 mM 2-mercaptoethanol, 100 mM KCl, 100 mM imidazole, and 10% (v/v) glycerol) to provide a fraction. The fraction was entrapped in a dialysis membrane (purchased from Spectrum Laboratories), dialyzed at 4° C. overnight with 1 L of dialysis buffer (20 mM Tris-HCl (pH 7.5), 10% (v/v) glycerol, 1 mM dithiothreitol, 0.1 mM Na3VO4 and 0.1 mM EGTA), and stored at −80° C. until used. An aliquot of the dialyzed fraction was subjected to SDS electrophoresis, and then a recombinant protein (His6-HGFR, the HGFR cytoplasmic domain fused with six histidine at the N terminus) detected at a molecular weight of about 60 kDa when stained with Coomassie Brilliant Blue, was determined with regard to protein content using BSA (purchased from Sigma) as a standard. The VEGFR2 cytoplasmic domain, the FGFR1 cytoplasmic domain, and the PDGFRβ cytoplasmic domain were fused with six histidine at the N terminus by the similar method to produce respective recombinant proteins (His6-VEGFR2, His6-FGFR1, and His6-PDGFRβ). […]

T1 sequence (P08581 956-1390 limits assumed): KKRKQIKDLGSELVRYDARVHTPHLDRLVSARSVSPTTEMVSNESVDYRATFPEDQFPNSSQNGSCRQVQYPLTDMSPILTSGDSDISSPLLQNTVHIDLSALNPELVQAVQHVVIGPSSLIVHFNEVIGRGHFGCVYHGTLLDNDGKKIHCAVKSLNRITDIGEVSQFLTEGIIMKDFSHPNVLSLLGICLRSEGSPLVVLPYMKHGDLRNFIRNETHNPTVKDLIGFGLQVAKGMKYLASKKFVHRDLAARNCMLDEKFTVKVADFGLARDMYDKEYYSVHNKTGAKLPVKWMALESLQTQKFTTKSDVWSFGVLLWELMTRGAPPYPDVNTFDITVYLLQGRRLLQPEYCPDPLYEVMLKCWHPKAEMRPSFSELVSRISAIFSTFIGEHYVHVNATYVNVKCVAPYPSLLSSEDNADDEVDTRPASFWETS

Turning to `O=C(Cc1ccccc1)NC(=O)Nc1ccc(Oc2cc(NC(=O)N3CCCC3)ncn2)c(F)c1` [Example 46, Pyrrolidine-1-carboxylic acid {6-[2-fluoro-4-(3-phenylacetylureido)phenoxy]pyrimidin-4-yl}amide], the IC50 came out at 45 nM. On to `CN(C)CCN1CCN(C(=O)Nc2cc(Oc3ccc(NC(=S)NC(=O)Cc4ccc(F)cc4)cc3)ccn2)CC1` [Example 327, 2-{[4-(2-Dimethylaminoethyl)piperazin-1-yl]carbonylamino}-4-(4-{3-[2-(4-fluorophenyl)acetyl]thioureido}phenoxy)pyridine], for which the IC50 came out at 75 nM.

On to `O=C(Cc1ccc(F)cc1)NC(=S)Nc1ccc(Oc2cc(NC(=O)N3CCN(CCN4CCCC4)CC3)ncn2)c(F)c1` [Example 339, 4-(2-Pyrrolidin-1-ylethyl)piperazine-1-carboxylic acid [6-(2-fluoro-4-{3-[2-(4-fluorophenyl)acetyl]thioureido}phenoxy)pyrimidin-4-yl]amide], for which the IC50 was determined as 130 nM.

For `CN(C)CC1CCN(C(=O)Nc2cc(Oc3ccc(NC(=O)NC(=O)Cc4ccccc4)cc3F)ccn2)CC1` [Example 342, 2-{[4-(Dimethylaminomethyl)piperidin-1-yl]carbonylamino}-4-{2-fluoro-4-[3-(2-phenylacetyl)ureido]phenoxy}pyridine], the IC50 turned out to be 59 nM.

As to `CN1CCC(N(C)C(=O)Nc2cc(Oc3ccc(NC(=S)NC(=O)Cc4ccc(F)cc4)cc3F)ncn2)CC1` [Example 170, 3-[6-(2-Fluoro-4-{3-[2-(4-fluorophenyl)acetyl]thioureido}phenoxy)pyrimidin-4-yl]-1-methyl-1-(1-methylpiperidin-4-yl)urea], the IC50 is 66 nM. The value for `O=C(Cc1ccccc1)NC(=S)Nc1ccc(Oc2ccnc(NC(=O)N3CCC3)c2)cc1Cl` [Example 100, Azetidine-1-carboxylic acid {4-[3-chloro-4-(3-phenylacetylthioureido)phenoxy]pyridin-2-yl}amide] was 200 nM; that for `O=C(Cc1ccccc1)NC(=S)Nc1ccc(Oc2ccnc(NC(=O)N3CCC(N4CCC4)CC3)c2)c(F)c1` [Example 39, 2-{[4-(Azetidin-1-yl)piperidin-1-yl]carbonylamino}-4-{2-fluoro-4-[3-(2-phenylacetyl)thioureido]phenoxy}pyridine] was 50 nM; that for `O=C(Cc1ccc(F)cc1)NC(=S)Nc1ccc(Oc2cc(NC(=O)N3CCC(CN4CCC4)CC3)ncn2)c(F)c1` [Example 392, 4-(Azetidin-1-ylmethyl)piperidine-1-carboxylic acid [6-(2-fluoro-4-{3-[2-(4-fluorophenyl)acetyl]thioureido}phenoxy)pyrimidin-4-yl]amide] was 55 nM. The value for `Cc1cc(Oc2ccnc(NC(=O)N(C)C)c2)ccc1NC(=O)CC(=O)Nc1ccc(F)cc1` [Example 86, N-{4-[2-(3,3-Dimethylureido)pyridin-4-yloxy]-2-methylphenyl}-N′-(4-fluorophenyl)malonamide] was 55 nM; that for `CN(C)CCN1CCN(C(=O)Nc2cc(Oc3ccc(NC(=S)NC(=O)Cc4ccccc4)cc3F)ccn2)CC1` [Example 309, 2-{[4-(2-Dimethylaminoethyl)piperazin-1-yl]carbonylamino}-4-(2-fluoro-4-{3-[2-(phenyl)acetyl]thioureido}phenoxy)pyridine] was 54 nM; that for `CN(C)[C@H]1CCN(C(=O)Nc2cc(Oc3ccc(NC(=S)NC(=O)Cc4ccccc4)cc3F)ccn2)C1` [Example 246, 2-{[(3S)-3-Dimethylaminopyrrolidin-1-yl]carbonylamino}-4-{2-fluoro-4-[3-(2-phenylacetyl)thioureido]phenoxy}pyridine] was 79 nM.

In the case of `O=C(CC(=O)Nc1ccc(Oc2ccnc(NC(=O)N3CCC(N4CCCCC4)CC3)c2)cc1F)Nc1ccc(F)cc1` [Example 78, N-(4-Fluorophenyl)-N′-{2-fluoro-4-[({[4-(piperidin-1-yl)piperidin-1-yl]carbonyl}amino)pyridin-4-yloxy]phenyl}malonamide], the IC50 was 130 nM.
